Holding throughout (format): in vivo
In test [1] the test system is Kunming mice. Briefly: Influence on autonomic activity of normal mice (ZIL-2 mice autonomic activity meter, counts within 10 min). As to conditions: intragastric, x ± s; for Times of activities in 1 h after drug administration/10 min: 1 h after administration; for Times of activities in 2 h after drug administration/10 min: 2 h after administration; for Times of activities in 24 h after drug administration/10 min: 24 h after administration. The text has this:
(§1) 1.1 Animals for experiments: Kunming mice, weighting 18.9˜22.2 g for females, and 20.2˜23.0 g for males, licensed under SCXK-(Ji) 2007-0003, and provided by The experimental animal centre, Jilin University.
(§2) 1.2 Chemicals for experiments: The flavone derivatives provided in Examples 1-41 and the flavanone derivatives provided in Examples 42-71 are all formulated with 0.5% sodium carboxymethyl cellulose as solutions with required concentrations.
(§3) 1.3 Grouping of animals: 6420 animals are employed in the entire experiments and 2140 of the animals are randomly divided into 214 groups by gender, and the […] include: control group, low dosage group for each experimental drugs (25 mg/kg), medium dosage group for each experimental drugs (50 mg/kg), and high dosage group for each experimental drugs (100 mg/kg). Each group has 10 animals and either female or male constitutes half of the group. The groups are used in behavior observation and voluntary action observation. The other 4280 animals are randomly divided into 214 groups by gender respectively (the grouping way is the same with that described above). Each group has 20 animals and either female or male constitutes half of the group. In each group, 10 animals are used in hypnosis experimentations with pentobarbital sodium doses below the threshold, and the other 10 animals are used hypnosis experimentations with pentobarbital sodium doses at the threshold.
1.4 Experimental instrument and agents: ZIL-2 mice autonomic activity meter, production of Institute of Materia Medica of Chinese Academy of Medical Sciences; pentobarbital sodium, Lot: 100808, 25 g/bottle, Beijing Chemical Reagent Company equipment imported from Germany.
1.5.2 Influence on Autonomic Activity of Normal Mice
After observing the general behavior, in 1 h, 2 h and 24 h after drug administration, respectively, ZIL-2 mice autonomic activity meter is put respectively. Number of autonomic activities of each group of mice is measured within 10 min. Results among groups are compared.
(§4) Number of autonomic activities is detected by leneve Test for homogeneity of variance. If the homogeneity of variance is good (P>0.05), statistical analysis is performed with ANOVA. If ANOVA have statistical significance (P≦0.05), Dunnett's test for multiple comparisons analysis is performed. Number of animals of sleeping mice is applied of ANOVA. Incidence rate of animal asleep is applied of χ2 test. Sleep latency and sleep duration are recorded in min, averaged by group, represented by standard deviation, and undergo statistical analysis using ANOVA.

The subject of test [2] is Kunming mice. Briefly: Influence on hypnosis effect with pentobarbital sodium doses at the threshold (50 mg/kg i.p.). As to conditions: pentobarbital sodium 50 mg/kg i.p. 60 min later, x ± s, n = 10.
From the text: as §1, §2, §3
1.5.4 Influence on Hypnosis Effect with Mice Pentobarbital Sodium Doses at the Threshold
(§5) The drug is intragastric administered in mice for single time, 2 animals of each group are given drug per round with the dosing interval of 40 min (±5 min). According to the administration round, in 60 min (±5 min) of each round after the drug administration, the animals were intraperitoneally injected 0.3% sodium pentobarbital 50 mg/kg, respectively. Time to fall asleep (sleep latency) and sleep duration of the animals were recorded within under sleep determination standard of loss of righting reflex more than 1 min.
as §4

Test [3] deals with Kunming mice. Kind of test: Influence on hypnosis effect with pentobarbital sodium doses below the threshold (25 mg/kg i.p.). As to conditions: pentobarbital sodium 25 mg/kg i.p. 60 min later, sleep observed in 30 min, n = 10.
From the text: as §1, §2, §3
1.5.3 Influence on Hypnosis Effect with Mice Pentobarbital Sodium Doses Below the Threshold
as §5, with “25” for “50”, “Sleep condition” for “Time to fall asleep (sleep latency) and sleep duration”, “observed” for “recorded”, “30 min (under” for “under”, “min). After animals undergo loss of righting reflex, number of the animals is recorded, to calculate sleep percentage.” for “min.”
as §4

Where [4] appears, read: 25 mg/kg intragastric single dose.
Where [5] appears, read: 50 mg/kg intragastric single dose.
Setting [6] is: 100 mg/kg intragastric single dose.
The mark [7] stands for this setting: test drug 25 mg/kg intragastric single dose.
[8] abbreviates: test drug 50 mg/kg intragastric single dose.
The mark [9] stands for this setting: test drug 100 mg/kg intragastric single dose.

Structures are written as SMILES. Marks after values point to notes of the source that are not given here.

`CCc1cccc2c1C(=O)CC(c1cc(F)cc(C(=O)O)c1)O2` (stereo not drawn) [Example 53]: the “Times of activities in 1 h after drug administration/10 min” value (“Times of activities in 1 h” below) with Kunming mice [1] (25 mg/kg, n = 10) is 303.8 ± 67.4 /10 min; with Kunming mice [1] (50 mg/kg, n = 10) it was 249.3 ± 61.0 /10 min; in the test on Kunming mice [1] (100 mg/kg, n = 10), 201.8 ± 36.6 /10 min. Further, the “Times of activities in 2 h after drug administration/10 min” value (from here on “Times of activities in 2 h”) in the test with Kunming mice [1] (25 mg/kg, n = 10) is recorded as 283.8 ± 73.8 /10 min; in the test with Kunming mice [1] (50 mg/kg, n = 10), 236.7 ± 60.8 /10 min; in the test with Kunming mice [1] (100 mg/kg, n = 10), 194.8 ± 42.5 /10 min. For the same compound, the “Times of activities in 24 h after drug administration/10 min” value (shortened to “Times of activities in 24 h”) with Kunming mice [1] (25 mg/kg, n = 10) is 314.9 ± 68.9 /10 min; with Kunming mice [1] (50 mg/kg, n = 10), 297.7 ± 87.6 /10 min; in the test with Kunming mice [1] (100 mg/kg, n = 10), 330.9 ± 73.6 /10 min. Also, the duration of sleep in the test with Kunming mice [2] (setting [4]) turned out to be 39.56 ± 20.45 min; with Kunming mice [2] (setting [5]) it was 47.28 ± 16.84 min; in the test with Kunming mice [2] (setting [6]), 52.86 ± 19.25 min. For the same compound, the values for the time to sleep with Kunming mice [2] (setting [4]), in the test on Kunming mice [2] (setting [5]) and with Kunming mice [2] (setting [6]) were 4.82 ± 1.61 min, 4.31 ± 1.84 min and 3.61 ± 1.48 min, respectively. The “Number of sleeping animals” value is 4 with Kunming mice [3] (setting [7]), 6 in the test on Kunming mice [3] (setting [8]) and 7 in the test on Kunming mice [3] (setting [9]). Moreover, the “rate of sleeping (%)” value is on record as 40* % with Kunming mice [3] (setting [7]), 60** % in the test with Kunming mice [3] (setting [8]) and 70** % in the test on Kunming mice [3] (setting [9]).

Consider `COc1cc(OC)c2c(=O)cc(-c3ccc(OC)c(OC)c3)oc2c1` [Example 36], for which the “Times of activities in 1 h” value in the test on Kunming mice [1] (25 mg/kg, n = 10, 25 mg/kg) is listed as 321.4 ± 53.4 /10 min; in the test with Kunming mice [1] (50 mg/kg, n = 10, 50 mg/kg), 289.9 ± 44.8 /10 min; in the test with Kunming mice [1] (100 mg/kg, n = 10, 100 mg/kg), 288.3 ± 50.4 /10 min. Moreover, the “Times of activities in 2 h” value with Kunming mice [1] (25 mg/kg, n = 10, 25 mg/kg) is listed as 310.8 ± 51.5 /10 min; in the test with Kunming mice [1] (50 mg/kg, n = 10, 50 mg/kg), 258.2 ± 43.6 /10 min; with Kunming mice [1] (100 mg/kg, n = 10, 100 mg/kg), 235.8 ± 49.8 /10 min. Besides, the “Times of activities in 24 h” value is reported as 300.2 ± 79.6 /10 min with Kunming mice [1] (25 mg/kg, n = 10, 25 mg/kg); 311.5 ± 98.3 /10 min in the test with Kunming mice [1] (50 mg/kg, n = 10, 50 mg/kg); 322.6 ± 76.8 /10 min in the test with Kunming mice [1] (100 mg/kg, n = 10, 100 mg/kg). The duration of sleep with Kunming mice [2] (setting [4]) was 38.32 ± 20.03 min; in the test with Kunming mice [2] (setting [5]) it was 61.41 ± 26.54 min; in the test on Kunming mice [2] (setting [6]) it was 72.03 ± 21.92 min. Moreover, the time to sleep with Kunming mice [2] (setting [4]) was determined as 4.21 ± 1.65 min; in the test with Kunming mice [2] (setting [5]), 3.77 ± 1.12 min; with Kunming mice [2] (setting [6]) it was 3.09 ± 1.25 min. Also, the “Number of sleeping animals” value with Kunming mice [3] (setting [7]) is 3; in the test on Kunming mice [3] (setting [8]), 4; with Kunming mice [3] (setting [9]), 6. In addition, the entries for the “rate of sleeping (%)” value in the test on Kunming mice [3] (setting [7]), with Kunming mice [3] (setting [8]) and in the test with Kunming mice [3] (setting [9]) were 30%, 40* % and 60** %, respectively.

Regarding `CC=Cc1c(C(=O)O)cc2c(=O)cc(-c3ccc(F)c(C#N)c3)oc2c1C(=O)O` [Example 34], the “Times of activities in 1 h” value in the test with Kunming mice [1] (25 mg/kg, n = 10) was 292.2 ± 49.3 /10 min; with Kunming mice [1] (50 mg/kg, n = 10), 249.4 ± 62.4 /10 min; with Kunming mice [1] (100 mg/kg, n = 10), 127.8 ± 28.6 /10 min. The “Times of activities in 2 h” value is 276.2 ± 43.8 /10 min in the test with Kunming mice [1] (25 mg/kg, n = 10); 263.3 ± 59.3 /10 min in the test with Kunming mice [1] (50 mg/kg, n = 10); 243.9 ± 40.5 /10 min with Kunming mice [1] (100 mg/kg, n = 10). The “Times of activities in 24 h” value with Kunming mice [1] (25 mg/kg, n = 10) is 313.2 ± 75.4 /10 min; in the test with Kunming mice [1] (50 mg/kg, n = 10), 334.7 ± 72.3 /10 min; with Kunming mice [1] (100 mg/kg, n = 10), 298.7 ± 81.8 /10 min. For the same compound, the duration of sleep with Kunming mice [2] (setting [4]) came out at 37.89 ± 15.21 min; in the test with Kunming mice [2] (setting [5]), 44.75 ± 21.85 min; in the test with Kunming mice [2] (setting [6]), 54.77 ± 19.67 min. For the same compound, the time to sleep is on record as 4.39 ± 1.61 min in the test on Kunming mice [2] (setting [4]), 3.87 ± 1.42 min in the test on Kunming mice [2] (setting [5]) and 3.45 ± 1.38 min in the test on Kunming mice [2] (setting [6]). In addition, the figures for the “Number of sleeping animals” value in the test with Kunming mice [3] (setting [7]), in the test on Kunming mice [3] (setting [8]) and in the test with Kunming mice [3] (setting [9]) were 2, 4 and 6, respectively. The “rate of sleeping (%)” value is 20% in the test with Kunming mice [3] (setting [7]), 40* % in the test with Kunming mice [3] (setting [8]) and 60** % with Kunming mice [3] (setting [9]).

Consider `CCCc1cc(C2CC(=O)c3c(cc(O)cc3[N+](=O)[O-])O2)cc(-c2ccccc2)c1C1CCSC1` (stereo not drawn) [Example 51], for which the “Times of activities in 1 h” value in the test on Kunming mice [1] (25 mg/kg, n = 10) is reported as 227.8 ± 75.6 /10 min; in the test on Kunming mice [1] (50 mg/kg, n = 10), 143.3 ± 64.7 /10 min; in the test on Kunming mice [1] (100 mg/kg, n = 10), 115.8 ± 34.4 /10 min. Also, the “Times of activities in 2 h” value with Kunming mice [1] (25 mg/kg, n = 10) is listed as 231.8 ± 79.8 /10 min; in the test on Kunming mice [1] (50 mg/kg, n = 10), 130.7 ± 63.2 /10 min; in the test with Kunming mice [1] (100 mg/kg, n = 10), 108.8 ± 39.4 /10 min. The “Times of activities in 24 h” value with Kunming mice [1] (25 mg/kg, n = 10) was 321.6 ± 70.7 /10 min; in the test with Kunming mice [1] (50 mg/kg, n = 10) it was 306.3 ± 68.2 /10 min; in the test on Kunming mice [1] (100 mg/kg, n = 10), 300.4 ± 77.5 /10 min. The results for the duration of sleep in the test on Kunming mice [2] (setting [4]), in the test on Kunming mice [2] (setting [5]) and with Kunming mice [2] (setting [6]) were 49.88 ± 19.09 min, 57.61 ± 14.98 min and 82.27 ± 15.68 min, respectively. Further, the time to sleep with Kunming mice [2] (setting [4]) worked out at 4.61 ± 1.74 min; in the test with Kunming mice [2] (setting [5]) it was 3.43 ± 1.99 min; in the test with Kunming mice [2] (setting [6]), 2.71 ± 1.72 min. Besides, the entries for the “Number of sleeping animals” value in the test on Kunming mice [3] (setting [7]), in the test with Kunming mice [3] (setting [8]) and in the test on Kunming mice [3] (setting [9]) were 6, 6 and 8, respectively. Also, the “rate of sleeping (%)” value with Kunming mice [3] (setting [7]) is on record as 60** %; with Kunming mice [3] (setting [8]), 60** %; in the test with Kunming mice [3] (setting [9]) it was 80*** %.

The record behind these values is patent publication US9669003B2, “Use of flavone and flavanone derivatives in preparation of sedative and hypnotic drugs” (priority 2012, dated 2017).
